Several values for one entry are separate records, joined by “and”; a condition that tells them apart may be missing. Equal values may be shown once.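 The compound was tested at five concentrations on cells cultured in 96-well plates, with a 48-hour exposure period. GI50 = concentration required for 50% inhibition of growth. TGI is the concentration that stops growth completely.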
Tests used:
Assay in all cases: inhibition of tumour cell growth, NCI panel, 48 h
MCF7 breast = test system: MCF7 breast
SF-539 CNS = test system: SF-539 CNS
SF-295 CNS = test system: SF-295 CNS
LOX IMVI melanoma = test system: LOX IMVI melanoma
U251 CNS = test system: U251 CNS
M14 melanoma = test system: M14 melanoma
NCI/ADR-RES ovarian = test system: NCI/ADR-RES ovarian
MDA-MB-231 breast = test system: MDA-MB-231 breast
HL-60(TB) leukemia = test system: HL-60(TB) leukemia
HCT-15 colon = test system: HCT-15 colon

Row | Structure (SMILES) | GI50 (MCF7 breast) | TGI (MCF7 breast) | GI50 (SF-539 CNS) | TGI (SF-539 CNS) | GI50 (SF-295 CNS) | TGI (SF-295 CNS) | GI50 (LOX IMVI melanoma) | TGI (LOX IMVI melanoma) | GI50 (U251 CNS) | TGI (U251 CNS) | GI50 (M14 melanoma) | TGI (M14 melanoma) | GI50 (NCI/ADR-RES ovarian) | TGI (NCI/ADR-RES ovarian) | GI50 (MDA-MB-231 breast) | TGI (MDA-MB-231 breast) | GI50 (HL-60(TB) leukemia) | TGI (HL-60(TB) leukemia) | GI50 (HCT-15 colon) | TGI (HCT-15 colon)
1 | COc1ccc(-c2cn(C)c3c2-n2cccc2C3=O)cc1O | 0.806 µM | 20.3 µM | 1.76 µM | 16.5 µM | 5.22 µM | 21.3 µM | 3.71 µM | 13.3 µM | 8.61 µM | 29.8 µM | 6.57 µM | 20.3 µM | 3.39 µM | 25.3 µM | 3.65 µM | 29.8 µM | 3.48 µM | > 100 µM | 1.86 µM | 9.15 µM
2 | COc1ccc2nc3cc(Cl)ccc3c(Nc3ccccc3-c3ccccc3Nc3c4ccc(Cl)cc4nc4ccc(OC)cc34)c2c1 |  | > 100 µM |  | > 67.2 µM |  | > 76.2 µM |  | 47.4 µM |  | > 93.5 µM |  | > 87.5 µM |  | > 100 µM |  | > 100 µM |  | 16.8 µM |  | > 66.9 µM
3 | CCc1nc(N)nc(N)c1C#CC(C)c1ccc(-c2ccncc2)cc1Cl (centres undefined) | 0.0144 µM and 0.0328 µM | 4.31 µM and 12.1 µM | 0.0159 µM and 0.0423 µM | 1.56 µM and 10.4 µM | 0.00508 µM and 0.0141 µM | 0.809 µM and 4.24 µM | < 0.005 µM | 1.37 µM and 11.3 µM | 0.0108 µM and 0.028 µM | 5.1 µM and 11.6 µM | < 0.005 µM and 0.0121 µM | 1.61 µM and 10.3 µM | 0.0096 µM and 0.0366 µM | 5.11 µM and 9.3 µM | 0.555 µM and 0.511 µM | 7.11 µM and 19.8 µM | 0.0226 µM and 0.0298 µM | 1.75 µM and 2.61 µM | < 0.005 µM and 0.0127 µM | 5.24 µM and 11.9 µM
4 | O=C1/C(=C/c2ccc(F)cc2)COc2ccc(O)c(O)c21 | 1.02 µM | > 100 µM | 1.28 µM | 2.7 µM | 8.09 µM | > 100 µM | 1.03 µM | 2.39 µM | 1.46 µM | 4.19 µM | 3.21 µM | 19.2 µM | 1.96 µM | 7.85 µM | 1.43 µM | 6.25 µM | 0.604 µM | 3.89 µM | 0.755 µM | 5.85 µM
5 | O=C(CCN1CCCC1)Nc1ccc2c(Nc3ccc(F)cc3)c3ccccc3nc2c1 | 0.147 µM | 1.89 µM | 1.61 µM | 3.05 µM | 1.05 µM | 2.32 µM | 0.606 µM | 2.01 µM | 1.17 µM | 3.03 µM | 1.64 µM | 3.53 µM | 2.11 µM | 7.4 µM | 1.48 µM | 3.34 µM | 1.51 µM | 3.75 µM | 0.699 µM | 2.53 µM
6 | O=[N+]([O-])c1ccccc1/C=N\NC(=S)N/N=C/c1ccccc1[N+](=O)[O-] | 3.12 µM | > 100 µM | 4.17 µM | 58.6 µM | 1.87 µM | 7.41 µM | 6.48 µM | > 100 µM | 4.9 µM | > 100 µM | 3.76 µM | > 100 µM | 2.66 µM | > 100 µM | 37.8 µM | > 100 µM | 3.59 µM | > 100 µM | 3.76 µM | > 100 µM
7 | Nc1n[n+]([O-])c2ccc(Cl)cc2[n+]1[O-] |  | > 100 µM |  | 58.7 µM |  | > 100 µM |  | > 100 µM |  | 67.3 µM |  | 40.4 µM |  | > 100 µM |  | > 100 µM |  | > 100 µM |  | 58.9 µM
8 | CN(C)Cc1ccc(NC(=O)c2cncc(C#Cc3cnc(N)c4ncccc34)c2)cc1C(F)(F)F | 1.63 µM | 3.33 µM | 1.36 µM | 2.66 µM | 1.59 µM | 2.98 µM | 0.994 µM | 2.24 µM | 1.63 µM | 3.13 µM | 0.0802 µM | 1.33 µM | 1.8 µM | 3.67 µM | 1.07 µM | 2.36 µM | 0.937 µM | 2.51 µM | 1.5 µM | 3.1 µM
9 | NC(CSC(c1ccccc1)(c1ccccc1)c1ccccc1)C(=O)O (centres undefined) | 0.665 µM and 0.416 µM | 67.8 µM and > 100 µM | 0.874 µM and 0.459 µM | 10.6 µM and 3.01 µM and 3.26 µM | 0.485 µM and 0.522 µM and 2.65 µM |  | 6.26 µM and 4.14 µM | 24.3 µM and > 100 µM | 1.11 µM and 0.485 µM | 16.9 µM and 32.4 µM and 43.4 µM | 0.426 µM and 0.389 µM | 6.01 µM and 16.2 µM and 27.5 µM | 10.9 µM | 48.2 µM and > 100 µM | 1.08 µM | 4.65 µM and 6.45 µM | 2.54 µM and 2.11 µM | 5.93 µM and 1.53 µM and 8.62 µM | 2.31 µM and 1.79 µM | 51.1 µM and > 100 µM
10 | CC(C)(C)OC(=O)NCCCCCCCCCn1c2c(c3ccccc3c1=O)C(=O)c1ccccc1-2 | 90 µM | > 100 µM | 18 µM | 52.8 µM | 24.8 µM | > 100 µM | 76.3 µM | > 100 µM | 22 µM | > 100 µM | > 100 µM | > 100 µM | 43.5 µM | > 100 µM | 31.7 µM | > 100 µM | > 100 µM | > 100 µM | > 100 µM | > 100 µM
11 | COc1ccc(-c2nc(NC(=O)CS(=O)(=O)c3ccc(F)cc3)sc2C)cc1 | 16.3 µM | > 100 µM | 16.9 µM | 37.2 µM | 18.8 µM | 50.1 µM | 19.2 µM | 42.6 µM | 19.2 µM | 51.3 µM | 19.1 µM | 55.7 µM | 17.4 µM | > 100 µM | 23.2 µM | > 100 µM | 16.5 µM | 66 µM | 12.5 µM | > 100 µM
12 | O=C(CSSCC(=O)c1ccc(Cl)cc1)c1ccc(Cl)cc1 | 3.76 µM | 17.8 µM | 7.36 µM | 23.8 µM | 2.58 µM | 15.2 µM | 2.6 µM | 8.2 µM | 4.16 µM | 17.5 µM | 5.59 µM | 22.1 µM | 2.69 µM | 13.1 µM | 4.93 µM | 24.2 µM | 3.75 µM | > 100 µM | 6.73 µM | 28.6 µM
13 | CN[C@@H](C)C(=O)N[C@H](C(=O)N1CCC[C@H]1c1nc(C(=O)c2ccc(F)cc2)cs1)C1CCCCC1 | 16.1 µM | 32.8 µM | 0.838 µM | 17.6 µM | 19.4 µM | 46.1 µM | 19 µM | 37 µM | 15.6 µM | 33.3 µM | 19.4 µM | 38.4 µM | 21.2 µM | > 66 µM | 0.324 µM | 20.6 µM | 3.69 µM | 20 µM | 27.7 µM | > 95.9 µM
